Consider one substance from patent US20090297628A1, “Use of iron in the form of a stone extract as stimulus of the synthesis of collagen by skin fibroblasts” (GATTEFOSSE SAS, priority 2005, published 2009).

The test has as its system pro-collagen I in normal human fibroblasts. Kind of test: Pro-collagen I content of normal human fibroblasts cultivated in a monolayer (Elisa on cell lysates). Type of test: cell-based. Conditions: 10 ng/ml, 48 H incubation, p<0.05. An excerpt: The influence of the product on the expression of pro-collagen I is investigated in a model of normal human fibroblasts cultivated in a monolayer. The pro-collagen I is quantified using an Elisa (Enzyme Linked ImmunoSorbent Assay) kit on cell lysates. Furthermore, the proteins contained in the cell lysates are quantified by a spectrocolorimetric method according to the Bradford method. Included in the study is a negative control, consisting of the culture medium, and a positive control, represented by TGF-β (Transforming Growth Factor β) containing 10 ng/ml.
Collagens of types I, II, […], IV and V are synthesized from precursor molecules called “pro-collagen”. […]
The fibroblasts are incubated for 48 hours at 37° C., under humid atmosphere and 5% CO2 in a culture medium alone or in the presence of a reference product or increasing concentrations of active ingredients in the test. After 48 H of incubation of the test product, the type I pro-collagen and the total proteins present in the cell lysates are quantified. The results are obtained as a quantity (ng) of pro-collagen of type I C-Peptide per quantity (μg) of total proteins of the cell layer (means+/−standard deviation, S.D.). The statistical significance (*) of the differences observed between the “control” condition and each “treated” condition is evaluated by a One Way ANOVA on Ranks analysis followed by a Dunn's test (*: p<0.05). […]

As to TGF-β, the “Increase of the intrafibroblastic content of type I pro-collagen” value stood at 25%.
